Data reported in PubChem BioAssay AID1963440 (Molecular Pharmacology Branch, DTP, NCI, 2024).
Where “and” joins values, the source holds several entries; their conditions need not be identical. Identical values can stand only once.

System: NCI-H1417 complex spheroids, growth % test/control
Assay: Anticancer human tumor NCI-H1417 cell line growth inhibition [Asc];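 note: spheroids exposed to compounds for 7 days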;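 for viability, T/C: 100% = DMSO vehicle control wells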
Conditions: for viability, T/C: stronger effect = lower value; active = viability on the fitted dose curve at most 10% of control; inactive = the rest
Summary of the method: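 Stromal components (HUVEC and hMSC) are co-assembled with the cancer cells into multicellular spheroids. Drugs are then added singly or paired, at concentrations falling by half-log increments from a clinically achievable maximum, capped at 10 microM without known Cmax.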

[1] = curve of first compound, second compound 0.01 µM
[2] = curve of first compound, second compound 0.0316 µM
[3] = curve of first compound, second compound 0.1 µM
[4] = curve of first compound, second compound 0.316 µM
[5] = curve of first compound, second compound 1 µM
[6] = second compound 0.1 µM, first compound 0.00949 µM
[7] = second compound 0.1 µM, first compound 0.03 µM
[8] = second compound 0.1 µM, first compound 0.0949 µM
[9] = second compound 0.1 µM, first compound 0.3 µM
[10] = second compound 0.316 µM, first compound 0.00949 µM
[11] = second compound 0.316 µM, first compound 0.03 µM
[12] = second compound 0.316 µM, first compound 0.0949 µM
[13] = second compound 0.316 µM, first compound 0.3 µM
[14] = second compound 1 µM, first compound 0.00949 µM
[15] = second compound 1 µM, first compound 0.03 µM
[16] = second compound 1 µM, first compound 0.0949 µM
[17] = second compound 1 µM, first compound 0.3 µM

Cc1nc(N2CCC3(CC2)COC(C)C3N)c(CO)nc1Sc1ccnc(N)c1Cl (stereo unspecified) + CNC(C)C(=O)NC1CN(S(=O)(=O)c2cccc(S(=O)(=O)N3CCC4CCC(C(=O)NC(c5ccccc5)c5ccccc5)N4C(=O)C(NC(=O)C(C)NC)C3)c2)CCC2CCC(C(=O)NC(c3ccccc3)c3ccccc3)N2C1=O
inactive: viability, T/C (second compound 0.00316 µM, first compound 0.00949 µM) 99.4% | viability, T/C (second compound 0.00316 µM, first compound 0.03 µM) 89% | viability, T/C (second compound 0.00316 µM, first compound 0.0949 µM) 85.8% | viability, T/C (second compound 0.00316 µM, first compound 0.3 µM) 81.9% | viability, T/C (second compound 0.00316 µM, first compound 0.949 µM) 93.4% | viability, T/C (second compound 0.00316 µM, first compound 3 µM) 92.6% | viability, T/C (second compound 0.01 µM, first compound 0.00949 µM) 91.9% | viability, T/C (second compound 0.01 µM, first compound 0.03 µM) 100% | viability, T/C (second compound 0.01 µM, first compound 0.0949 µM) 89.3% | viability, T/C (second compound 0.01 µM, first compound 0.3 µM) 87.8% | viability, T/C (second compound 0.01 µM, first compound 0.949 µM) 96.9% | viability, T/C (second compound 0.01 µM, first compound 3 µM) 84.1% | viability, T/C (second compound 0.0316 µM, first compound 0.00949 µM) 93.9% | viability, T/C (second compound 0.0316 µM, first compound 0.03 µM) 92.2% | viability, T/C (second compound 0.0316 µM, first compound 0.0949 µM) 101% | viability, T/C (second compound 0.0316 µM, first compound 0.3 µM) 83.6% | viability, T/C (second compound 0.0316 µM, first compound 0.949 µM) 98.2% | viability, T/C (second compound 0.0316 µM, first compound 3 µM) 79% | viability, T/C [6] 87.5% | viability, T/C [7] 86.6% | viability, T/C [8] 91.7% | viability, T/C [9] 86.2% | viability, T/C (second compound 0.1 µM, first compound 0.949 µM) 86.9% | viability, T/C (second compound 0.1 µM, first compound 3 µM) 86.2% | viability, T/C [10] 82.8% | viability, T/C [11] 90.2% | viability, T/C [12] 88% | viability, T/C [13] 88.8% | viability, T/C (second compound 0.316 µM, first compound 0.949 µM) 84.1% | viability, T/C (second compound 0.316 µM, first compound 3 µM) 94.2% | viability, T/C [14] 78.1% | viability, T/C [15] 98.6% | viability, T/C [16] 90.2% | viability, T/C [17] 89.8% | viability, T/C (second compound 1 µM, first compound 0.949 µM) 83.7% | viability, T/C (second compound 1 µM, first compound 3 µM) 87.7%
> 3000 nM: IC50 (curve of first compound, second compound 0.00316 µM) | IC50 [1] | IC50 [2] | IC50 [3] | IC50 [4] | IC50 [5]

COc1c(OCCCN2CCOCC2)ccc2c3n(c(=NC(=O)c4cnc(N)nc4)nc12)CCN3
inactive: viability, T/C (compound 0.00316 µM) 94.5% and 101% and 96.7% | viability, T/C (compound 0.01 µM) 100% and 96.2% and 99% | viability, T/C (compound 0.0316 µM) 82.9% and 83.8% and 91.8% | viability, T/C (compound 0.1 µM) 76.9% and 73.8% and 90.3% | viability, T/C (compound 0.316 µM) 69% and 70.4% and 77.1% | viability, T/C (compound 1 µM) 54.8% and 47.9% and 64%
> 1000 nM: IC50 (curve of compound)

NC(=O)C(=Cn1cnc(-c2cc(C(F)(F)F)cc(C(F)(F)F)c2)n1)c1cncnc1 + Cc1c(S(C)(=O)=O)c(-c2cc(F)cc(N3CCN(c4ccc(NS(=O)(=O)c5ccc(NC(CCN6CCC(C(=O)OCCCP(=O)(O)O)CC6)CSc6ccccc6)c(S(=O)(=O)C(F)(F)F)c5)cc4)CC3)c2)c(-c2ccc(Cl)cc2)n1C(C)C
< 0.949 nM: IC50 [4] | IC50 [5] | IC50 (curve of first compound, second compound 3.16 µM) | IC50 (curve of first compound, second compound 10 µM)
active: viability, T/C [8] 8.22% | viability, T/C [9] 3.52% | viability, T/C [12] 3.84% | viability, T/C [13] 1.35% | viability, T/C (second compound 1 µM, first compound 0.000949 µM) 8.75% | viability, T/C (second compound 1 µM, first compound 0.003 µM) 8.33% | viability, T/C [14] 5.84% | viability, T/C [15] 3.45% | viability, T/C [16] 1.82% | viability, T/C [17] 0.83% | viability, T/C (second compound 3.16 µM, first compound 0.000949 µM) 2.8% | viability, T/C (second compound 3.16 µM, first compound 0.003 µM) 2.41% | viability, T/C (second compound 3.16 µM, first compound 0.00949 µM) 2.15% | viability, T/C (second compound 3.16 µM, first compound 0.03 µM) 2.26% | viability, T/C (second compound 3.16 µM, first compound 0.0949 µM) 1.59% | viability, T/C (second compound 3.16 µM, first compound 0.3 µM) 0.92% | viability, T/C (second compound 10 µM, first compound 0.000949 µM) 2.33% | viability, T/C (second compound 10 µM, first compound 0.003 µM) 1.83% | viability, T/C (second compound 10 µM, first compound 0.00949 µM) 2.16% | viability, T/C (second compound 10 µM, first compound 0.03 µM) 2.37% | viability, T/C (second compound 10 µM, first compound 0.0949 µM) 1.29% | viability, T/C (second compound 10 µM, first compound 0.3 µM) 0.5%
inactive: viability, T/C (second compound 0.1 µM, first compound 0.000949 µM) 75.4% | viability, T/C (second compound 0.1 µM, first compound 0.003 µM) 77.7% | viability, T/C [6] 51.9% | viability, T/C [7] 24.1% | viability, T/C (second compound 0.316 µM, first compound 0.000949 µM) 38.6% | viability, T/C (second compound 0.316 µM, first compound 0.003 µM) 29.7% | viability, T/C [10] 20.7% | viability, T/C [11] 10.5%
11.1 nM: IC50 [3]

CNC(C)C(=O)NC1CN(S(=O)(=O)c2cccc(S(=O)(=O)N3CCC4CCC(C(=O)NC(c5ccccc5)c5ccccc5)N4C(=O)C(NC(=O)C(C)NC)C3)c2)CCC2CCC(C(=O)NC(c3ccccc3)c3ccccc3)N2C1=O (stereo unspecified)
> 1000 nM: IC50 (compound alone, run of 10/24/2022) | IC50 (compound alone, run of 11/15/2022) | IC50 (curve of compound)
inactive: viability, T/C (compound 0.00316 µM) 95% and 113% and 107% | viability, T/C (compound 0.01 µM) 105% [middle of 14 runs] | viability, T/C (compound 0.0316 µM) 97.8% [middle of 13 runs] | viability, T/C (compound 0.316 µM) 96.8% [middle of 14 runs] | viability, T/C (compound 1 µM) 97.5% [middle of 14 runs]

C=C(F)C(=O)N1CCN(c2nc(OCC3CCCN3C)nc3c2CCN(c2cccc4cccc(Cl)c24)C3)CC1CC#N (stereo unspecified)
inactive: viability, T/C (compound 0.0316 µM) 98.9% and 103% and 94.2% | viability, T/C (compound 0.1 µM) 106% and 101% and 88% | viability, T/C (compound 0.316 µM) 96.4% and 99.8% and 99.7% | viability, T/C (compound 1 µM) 90.7% and 84.8% and 90.3% | viability, T/C (compound 3.16 µM) 59.8% and 57.5% and 74.3%
3830 nM and 3660 nM and 4610 nM: IC50 (curve of compound)
active: viability, T/C (compound 10 µM) 0.26% and 0.27% and 0.31%

NC1CCC(NC2CC2c2ccccc2)CC1 (stereo unspecified) + CNC(C)C(=O)NC1CN(S(=O)(=O)c2cccc(S(=O)(=O)N3CCC4CCC(C(=O)NC(c5ccccc5)c5ccccc5)N4C(=O)C(NC(=O)C(C)NC)C3)c2)CCC2CCC(C(=O)NC(c3ccccc3)c3ccccc3)N2C1=O
> 100 nM: IC50 [1] | IC50 [2] | IC50 [3] | IC50 [4] | IC50 [5]
inactive: viability, T/C (second compound 0.01 µM, first compound 0.000316 µM) 93.4% | viability, T/C (second compound 0.01 µM, first compound 0.001 µM) 92.8% | viability, T/C (second compound 0.01 µM, first compound 0.00316 µM) 88.7% | viability, T/C (second compound 0.01 µM, first compound 0.01 µM) 89.4% | viability, T/C (second compound 0.01 µM, first compound 0.0316 µM) 84.2% | viability, T/C (second compound 0.01 µM, first compound 0.1 µM) 91% | viability, T/C (second compound 0.0316 µM, first compound 0.000316 µM) 106% | viability, T/C (second compound 0.0316 µM, first compound 0.001 µM) 80.6% | viability, T/C (second compound 0.0316 µM, first compound 0.00316 µM) 91.8% | viability, T/C (second compound 0.0316 µM, first compound 0.01 µM) 81.8% | viability, T/C (second compound 0.0316 µM, first compound 0.0316 µM) 80.2% | viability, T/C (second compound 0.0316 µM, first compound 0.1 µM) 80.4% | viability, T/C (second compound 0.1 µM, first compound 0.000316 µM) 84.8% | viability, T/C (second compound 0.1 µM, first compound 0.001 µM) 91% | viability, T/C (second compound 0.1 µM, first compound 0.00316 µM) 85.5% | viability, T/C (second compound 0.1 µM, first compound 0.01 µM) 81.4% | viability, T/C (second compound 0.1 µM, first compound 0.0316 µM) 82.9% | viability, T/C (second compound 0.1 µM, first compound 0.1 µM) 89.7% | viability, T/C (second compound 0.316 µM, first compound 0.000316 µM) 87.6% | viability, T/C (second compound 0.316 µM, first compound 0.001 µM) 99.3% | viability, T/C (second compound 0.316 µM, first compound 0.00316 µM) 82% | viability, T/C (second compound 0.316 µM, first compound 0.01 µM) 80.8% | viability, T/C (second compound 0.316 µM, first compound 0.0316 µM) 88.1% | viability, T/C (second compound 0.316 µM, first compound 0.1 µM) 105% | viability, T/C (second compound 1 µM, first compound 0.000316 µM) 97.2% | viability, T/C (second compound 1 µM, first compound 0.001 µM) 88.5% | viability, T/C (second compound 1 µM, first compound 0.00316 µM) 89.7% | viability, T/C (second compound 1 µM, first compound 0.01 µM) 88% | viability, T/C (second compound 1 µM, first compound 0.0316 µM) 84% | viability, T/C (second compound 1 µM, first compound 0.1 µM) 90.2%

C=CC(=O)N1CCN(c2nc(=O)n(-c3c(C)ccnc3C(C)C)c3nc(-c4c(O)cccc4F)c(F)cc23)C(C)C1 (stereo unspecified)
inactive: viability, T/C (compound 0.0316 µM) 111% and 108% and 110% | viability, T/C (compound 0.1 µM) 105% and 90.2% and 96.7% | viability, T/C (compound 0.316 µM) 112% and 98.4% and 106% | viability, T/C (compound 1 µM) 111% and 105% and 101% | viability, T/C (compound 3.16 µM) 99.4% and 104% and 103% | viability, T/C (compound 10 µM) 99.5% and 102% and 94.5%
> 10000 nM: IC50 (curve of compound)
